Measurements published in patent publication US7910751B2, “Heterocyclidene acetamide derivative” (Mochida Pharmaceutical Co., Ltd., priority 2005, dated 2011).

Target: T1, human TRPV1 (Homo sapiens, UniProt Q8NER1)
T1 construct: expressed in transfected cells; host or cells: CHO-K1
Assay: Measurement of capsaicin-induced Ca influx in human TRPV1 transformed CHO cell line using FDSS-6000
Format: cell-based
Conditions: concentration at which the capsaicin concentration-reaction curve is shifted two times to the right, human TRPV1 transformed CHO cells

T1 sequence (Q8NER1 whole entry): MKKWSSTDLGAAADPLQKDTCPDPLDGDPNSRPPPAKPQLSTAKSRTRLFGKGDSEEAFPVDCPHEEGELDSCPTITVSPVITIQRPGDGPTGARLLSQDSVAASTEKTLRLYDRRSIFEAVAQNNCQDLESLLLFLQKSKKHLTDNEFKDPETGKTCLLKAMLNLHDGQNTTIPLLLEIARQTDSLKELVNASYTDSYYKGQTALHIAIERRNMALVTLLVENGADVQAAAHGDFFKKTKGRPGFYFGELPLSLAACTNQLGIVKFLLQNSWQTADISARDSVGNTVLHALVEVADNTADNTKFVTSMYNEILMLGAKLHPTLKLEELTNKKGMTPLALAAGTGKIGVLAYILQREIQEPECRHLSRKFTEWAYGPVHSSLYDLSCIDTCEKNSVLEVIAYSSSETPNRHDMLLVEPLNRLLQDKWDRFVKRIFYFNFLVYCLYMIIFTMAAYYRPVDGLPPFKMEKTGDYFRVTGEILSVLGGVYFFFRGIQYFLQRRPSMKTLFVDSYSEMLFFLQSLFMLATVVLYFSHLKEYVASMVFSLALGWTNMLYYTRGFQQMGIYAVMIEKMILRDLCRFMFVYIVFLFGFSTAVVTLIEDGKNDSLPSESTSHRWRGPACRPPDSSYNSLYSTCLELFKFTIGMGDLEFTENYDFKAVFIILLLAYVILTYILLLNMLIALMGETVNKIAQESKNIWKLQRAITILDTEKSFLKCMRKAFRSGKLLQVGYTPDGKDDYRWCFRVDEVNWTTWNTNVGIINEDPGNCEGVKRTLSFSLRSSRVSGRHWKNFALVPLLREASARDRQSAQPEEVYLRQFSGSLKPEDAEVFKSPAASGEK

Row | SMILES | A2 VALUE
1 | O=C(/C=C1\CCCOc2cc(C(F)(F)F)ccc21)Nc1cccc2ccc(O)cc12 [Example 18, (E)-2-(8-trifluoromethyl-3,4-dihydrobenzo[b]oxepin-5(2H)-ylidene)-N-(7-hydroxynaphthalen-1-yl)acetamide] | A (compounds of the present invention having an A2 value of less than 100 nM are represented by A)
2 | CC1(C(=O)N2CC/C(=C\C(=O)Nc3cccc4c3CC(O)CC4)c3ccc(C(F)(F)F)cc32)CC1 (stereo not shown) [Example 89, (E)-2-(1-(1-methylcyclopropanecarbonyl)-7-trifluoromethyl-2,3-dihydroquinolin-4(1H)-ylidene)-N-(7-hydroxy-5,6,7,8-tetrahydronaphthalen-1-yl)acetamide] | A (compounds of the present invention having an A2 value of less than 100 nM are represented by A)
3 | O=C(/C=C1\CCOc2cc(OC(F)(F)F)ccc21)Nc1cccc2c1CC(O)CN2 (stereo not shown) [Example 211, (E)-2-(7-trifluoromethoxy-chroman-4-ylidene)-N-(3-hydroxy-1,2,3,4-tetrahydroquinolin-5-yl)acetamide] | A (compounds of the present invention having an A2 value of less than 100 nM are represented by A)
4 | O=C(/C=C1\CCOc2cc(C(F)(F)F)ccc21)Nc1cccc2c1CC(O)C(=O)N2 (stereo not shown) [Example 121, (E)-N-(3-hydroxy-2-oxo-1,2,3,4-tetrahydroquinolin-5-yl)-2-(7-trifluoromethyl-chroman-4-ylidene)acetamide] | A (compounds of the present invention having an A2 value of less than 100 nM are represented by A)
